Measured values: patent US8834841B2, “Imaging agents” (priority 2005, dated 2014)

System: U87 Glioma Tumor Cells Implanted SC in SCID Mice
Test: tissue distribution, U87 tumor-bearing SCID mice
Format: in vivo
Protocol: For the in vitro amino acid uptake studies, all cells can be grown to monolayer confluency in T-175 culture flasks [Corning, Corning, N.Y.] (approx. 1×10^8 cells/flask) in Dulbecco's Modified Eagle's Medium (DMEM) [Sigma, St. Louis, Mo.] in a humidified incubator (37° C., 5% CO2/95% air). Media are supplemented with 10% fetal calf serum [Hyclone, Logan, Utah], and antibiotics (10,000 U/ml penicillin and 10 mg/ml streptomycin) (Sigma, St. Louis, Mo.). For tissue culture passage, monolayer cells are detached by gentle trypsinization, resuspended in complete media, and split 1:10 into new T-flasks. Cultures are passaged weekly, and fed fresh media every 2 to 3 days. To initiate tumor growth in SCID mice, 1×10^6 cells are injected s.c. bilaterally into the flanks (inguinal region) of the recipient animals using a 1 ml syringe with a 27 gauge needle. Ex vivo experiments can be performed with animals containing tumors weighing between 500 mg and 1 g, as estimated by caliper measurement (tumor weight=(π/6)*abc, where a, b and c are the tumor length, width and height, respectively). The compounds of the invention are further evaluated for their tumor specificity and selectivity in tumor-bearing animal models. One can evaluate and compare the transport, accumulation and tissue distribution of each compound in these in vivo animal studies. Tissue distribution of the compounds is measured in SCID mice (average weight, 20-25 g) bearing human tumors as follows. The candidate radioligands (20 uCi in 0.4 ml 0.9% NaCl) are injected into the tail vein of tumor-bearing mice. […] Tissues (blood, heart, liver, lungs, kidneys, bone, thyroid, muscle, brain and tumor) are excised, rinsed in saline, and blotted dry. The tissues are weighed, placed into 12×75 mm glass vials, the radioactivity determined with a gamma counter, and the percent dose/gram calculated. Total activities of blood and muscle are calculated by assuming that they account for 7% and 40% of the total body mass, respectively.

% Dose/g blood (15 Minutes): 3.50 % Dose/g
% Dose/g bone (15 Minutes): 2.10 % Dose/g
% Dose/g brain (15 Minutes): 0.28 % Dose/g
% Dose/g heart (15 Minutes): 2.59 % Dose/g
% Dose/g kidney (15 Minutes): 9.21 % Dose/g
% Dose/g liver (15 Minutes): 3.43 % Dose/g
% Dose/g lung (15 Minutes): 4.08 % Dose/g
% Dose/g muscle (15 Minutes): 1.45 % Dose/g
% Dose/g pancreas (15 Minutes): 49.78 % Dose/g
% Dose/g spleen (15 Minutes): 6.63 % Dose/g
% Dose/g tumor (15 Minutes): 6.48 % Dose/g
% Dose/g blood (30 Minutes): 2.17 % Dose/g
% Dose/g bone (30 Minutes): 1.66 % Dose/g
% Dose/g brain (30 Minutes): 0.22 % Dose/g
% Dose/g heart (30 Minutes): 2.00 % Dose/g
% Dose/g kidney (30 Minutes): 5.08 % Dose/g
% Dose/g liver (30 Minutes): 2.58 % Dose/g
% Dose/g lung (30 Minutes): 2.82 % Dose/g
% Dose/g muscle (30 Minutes): 1.12 % Dose/g
% Dose/g pancreas (30 Minutes): 41.30 % Dose/g
% Dose/g spleen (30 Minutes): 5.11 % Dose/g
% Dose/g tumor (30 Minutes): 5.44 % Dose/g
% Dose/g blood (60 Minutes): 0.81 % Dose/g
% Dose/g bone (60 Minutes): 1.21 % Dose/g
% Dose/g brain (60 Minutes): 0.17 % Dose/g
% Dose/g heart (60 Minutes): 1.13 % Dose/g
% Dose/g kidney (60 Minutes): 2.00 % Dose/g
% Dose/g liver (60 Minutes): 1.22 % Dose/g
% Dose/g lung (60 Minutes): 1.15 % Dose/g
% Dose/g muscle (60 Minutes): 1.10 % Dose/g
% Dose/g pancreas (60 Minutes): 17.78 % Dose/g
% Dose/g spleen (60 Minutes): 3.02 % Dose/g
% Dose/g tumor (60 Minutes): 3.61 % Dose/g
% Dose/g blood (120 Minutes): 0.46 % Dose/g
% Dose/g bone (120 Minutes): 1.20 % Dose/g
% Dose/g brain (120 Minutes): 0.16 % Dose/g
% Dose/g heart (120 Minutes): 0.89 % Dose/g
% Dose/g kidney (120 Minutes): 1.10 % Dose/g
% Dose/g liver (120 Minutes): 0.75 % Dose/g
% Dose/g lung (120 Minutes): 0.64 % Dose/g
% Dose/g muscle (120 Minutes): 0.99 % Dose/g
% Dose/g pancreas (120 Minutes): 10.20 % Dose/g
% Dose/g spleen (120 Minutes): 1.48 % Dose/g
% Dose/g tumor (120 Minutes): 2.73 % Dose/g
Compound: NC1(C(=O)O)CCC1[18F] [Anti-R,S 2-[^18F]FACBC, (R,S) anti-1-amino-2-[^18F]fluorocyclobutyl-1-carboxylic acid]
